According to patent publication US12427122B2, “Method of making transdermal amphetamine composition with low levels of carbamate” (Noven Pharmaceuticals, Inc., priority 2021, dated 2025):

Assay: Stability of the amphetacarbamate moiety in solution
Assay type: physicochemical
Excerpt: As noted above, the existence or identity of amphetamine carbamate or amphetacarbamate per se were not known. Rather, amphetamine carbamate was identified and characterized by analyzing crystals isolated from drug-containing polymer matrices of transdermal amphetamine compositions, and amphetacarbamate was identified the work done to identify and characterize amphetamine carbamate. In addition to the inventions described herein pertaining to transdermal amphetamine compositions and amphetamine transdermal delivery systems, methods for detecting and quantifying amphetamine carbamate had to be developed. […] Thus, for example, typical HPLC assays could not be used.

(S)-1-phenylpropan-2-ammonium-(S)-(1-phenylpropan-2-yl)carbamate [amphetamine carbamate]
stability of amphetacarbamate moiety: labile and readily converts to amphetamine
